Source: the supplement of paper PMC10627819

What was measured:
S. aureus DSM 20231 = experiment: fitness (endpoint OD595 vs no drug) (fraction); higher = more growth
Summary of the method: (§1)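 Fitness was defined as the optical density at the transition into stationary phase relative to the robust mean of no-drug control wells. Values were capped at 1. Cultures were started at OD595 0.01 in 384-well plates (30 µl, or 55 µl for S. pneumoniae) in TSB, LB Lennox or CY at 37 °C. OD595 was recorded every 30 min over 14 h, with the first reading subtracted as background.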

S. pneumoniae D39V = experiment: as above
Summary of the method: as §1

CC(=O)Oc1ccccc1C(=O)O [Acetylsalicylic acid] + Cn1nnc(-c2ccc(-c3ccc(N4C[C@H](CO)OC4=O)cc3F)cn2)n1 [Tedizolid]
fitness
Details | partner 0.03125 µg/mL | partner 0.0625 µg/mL | partner 0.125 µg/mL | partner 0.25 µg/mL | partner 0.5 µg/mL
S. aureus DSM 20231, first compound 250 µg/mL | – | 0.839 | 0.778 | 0.403 | –
S. aureus DSM 20231, first compound 500 µg/mL | – | – | – | 0.327 | –
S. aureus DSM 20231, first compound 1000 µg/mL | – | – | – | 0.128 | –
S. pneumoniae D39V, first compound 250 µg/mL | 0.968 | 0.989 | 0.864 | 0.534 | 0.208
S. pneumoniae D39V, first compound 500 µg/mL | 0.989 | 0.986 | 0.789 | 0.472 | 0.175
S. pneumoniae D39V, first compound 1000 µg/mL | 0.966 | 0.962 | 0.728 | 0.385 | 0.16

CN(C)[C@@H]1C(O)=C(C(N)=O)C(=O)[C@@]2(O)C(O)=C3C(=O)c4c(O)ccc(Cl)c4[C@@](C)(O)[C@H]3C[C@@H]12 [Chlortetracycline] + CO/N=C(\C(=O)N[C@@H]1C(=O)N2C(C(=O)[O-])=C(C[N+]3(C)CCCC3)CS[C@H]12)c1csc(N)n1 [Cefepime]
S. aureus DSM 20231, first compound 0.006 µg/mL, one replicate
Details | fitness
partner 0.125 µg/mL | 0.792
partner 0.25 µg/mL | 0.774
partner 0.5 µg/mL | 0.722

Details | fitness
S. aureus DSM 20231, first compound 0.012 µg/mL, partner 0.125 µg/mL | 0.63
S. aureus DSM 20231, first compound 0.012 µg/mL, partner 0.25 µg/mL | 0.617
S. aureus DSM 20231, first compound 0.012 µg/mL, partner 0.5 µg/mL | 0.636
S. aureus DSM 20231, first compound 0.024 µg/mL, partner 0.125 µg/mL | 0.388
S. aureus DSM 20231, first compound 0.048 µg/mL, partner 0.125 µg/mL | 0.274
S. aureus DSM 20231, first compound 0.048 µg/mL, partner 0.25 µg/mL | 0.304
S. aureus DSM 20231, first compound 0.048 µg/mL, partner 0.5 µg/mL | 0.274
S. pneumoniae D39V, first compound 0.012 µg/mL, partner 0.007 µg/mL | 0.964
S. pneumoniae D39V, first compound 0.012 µg/mL, partner 0.014 µg/mL | 0.949
S. pneumoniae D39V, first compound 0.012 µg/mL, partner 0.028 µg/mL | 0.836
S. pneumoniae D39V, first compound 0.024 µg/mL, partner 0.007 µg/mL | 0.936
S. pneumoniae D39V, first compound 0.024 µg/mL, partner 0.014 µg/mL | 0.86
S. pneumoniae D39V, first compound 0.024 µg/mL, partner 0.028 µg/mL | 0.811
S. pneumoniae D39V, first compound 0.048 µg/mL, partner 0.007 µg/mL | 0.659
S. pneumoniae D39V, first compound 0.048 µg/mL, partner 0.014 µg/mL | 0.661
S. pneumoniae D39V, first compound 0.048 µg/mL, partner 0.028 µg/mL | 0.693
S. pneumoniae D39V, first compound 0.375 µg/mL, partner 0.0078 µg/mL | 0.0772
S. pneumoniae D39V, first compound 0.375 µg/mL, partner 0.0155 µg/mL | 0.049
S. pneumoniae D39V, first compound 0.375 µg/mL, partner 0.031 µg/mL | 0.0797
S. pneumoniae D39V, first compound 0.75 µg/mL, partner 0.0078 µg/mL | 0.0925
S. pneumoniae D39V, first compound 0.75 µg/mL, partner 0.0155 µg/mL | 0.0687
S. pneumoniae D39V, first compound 0.75 µg/mL, partner 0.031 µg/mL | 0.0749
S. pneumoniae D39V, first compound 1.5 µg/mL, partner 0.0078 µg/mL | 0.0695
S. pneumoniae D39V, first compound 1.5 µg/mL, partner 0.0155 µg/mL | 0.0769
S. pneumoniae D39V, first compound 1.5 µg/mL, partner 0.031 µg/mL | 0.0751

CC(=O)Oc1ccccc1C(=O)O [Acetylsalicylic acid] + O=C(O[C@@H]1Cc2c(O)cc(O)cc2O[C@@H]1c1cc(O)c(O)c(O)c1)c1cc(O)c(O)c(O)c1 [EGCG]
fitness
Details | partner 12.5 µg/mL | partner 25 µg/mL | partner 50 µg/mL
S. aureus DSM 20231, first compound 250 µg/mL | 0.764 | 0.774 | 0.766
S. aureus DSM 20231, first compound 500 µg/mL | 0.735 | 0.767 | 0.72
S. aureus DSM 20231, first compound 1000 µg/mL | 0.616 | 0.621 | 0.598
S. pneumoniae D39V, first compound 250 µg/mL | 0.955 | 0.935 | 0.914
S. pneumoniae D39V, first compound 500 µg/mL | 0.927 | 0.929 | 0.851

CC(=O)Oc1ccccc1C(=O)O [Acetylsalicylic acid] + Cc1ncc([N+](=O)[O-])n1CCO [Metronidazole]
fitness
Details | partner 0.625 µg/mL | partner 1.073 µg/mL | partner 1.25 µg/mL | partner 2.145 µg/mL | partner 2.5 µg/mL | partner 4.29 µg/mL | partner 5 µg/mL
S. aureus DSM 20231, first compound 250 µg/mL | 0.939 | – | ≥ 1 | – | ≥ 1 | – | –
S. aureus DSM 20231, first compound 500 µg/mL | 0.778 | – | 0.791 | – | 0.759 | – | –
S. pneumoniae D39V, first compound 250 µg/mL | – | 0.982 | 0.971 | 0.959 | 0.989 | 0.937 | 0.972
S. pneumoniae D39V, first compound 500 µg/mL | – | 0.979 | 0.975 | 0.965 | 1 | 0.975 | 0.965
S. pneumoniae D39V, first compound 1000 µg/mL | – | 0.946 | 0.906 | 0.936 | 0.914 | 0.932 | 0.915
